This passage reports Ki results from BindingDB's records for PubMed 37713805 (University of Michigan).

The assay addresses Mitogen-activated protein kinase kinase kinase 12 (Homo sapiens) (UniProt Q12852). Briefly: Binding affinity to DLK (unknown origin) assessed as inhibition constant.

As a reminder, the Ki is a measure of affinity in units of concentration, obtained from inhibition or displacement.

Chain of Mitogen-activated protein kinase kinase kinase 12 (Homo sapiens) (Q12852 whole entry, looked up): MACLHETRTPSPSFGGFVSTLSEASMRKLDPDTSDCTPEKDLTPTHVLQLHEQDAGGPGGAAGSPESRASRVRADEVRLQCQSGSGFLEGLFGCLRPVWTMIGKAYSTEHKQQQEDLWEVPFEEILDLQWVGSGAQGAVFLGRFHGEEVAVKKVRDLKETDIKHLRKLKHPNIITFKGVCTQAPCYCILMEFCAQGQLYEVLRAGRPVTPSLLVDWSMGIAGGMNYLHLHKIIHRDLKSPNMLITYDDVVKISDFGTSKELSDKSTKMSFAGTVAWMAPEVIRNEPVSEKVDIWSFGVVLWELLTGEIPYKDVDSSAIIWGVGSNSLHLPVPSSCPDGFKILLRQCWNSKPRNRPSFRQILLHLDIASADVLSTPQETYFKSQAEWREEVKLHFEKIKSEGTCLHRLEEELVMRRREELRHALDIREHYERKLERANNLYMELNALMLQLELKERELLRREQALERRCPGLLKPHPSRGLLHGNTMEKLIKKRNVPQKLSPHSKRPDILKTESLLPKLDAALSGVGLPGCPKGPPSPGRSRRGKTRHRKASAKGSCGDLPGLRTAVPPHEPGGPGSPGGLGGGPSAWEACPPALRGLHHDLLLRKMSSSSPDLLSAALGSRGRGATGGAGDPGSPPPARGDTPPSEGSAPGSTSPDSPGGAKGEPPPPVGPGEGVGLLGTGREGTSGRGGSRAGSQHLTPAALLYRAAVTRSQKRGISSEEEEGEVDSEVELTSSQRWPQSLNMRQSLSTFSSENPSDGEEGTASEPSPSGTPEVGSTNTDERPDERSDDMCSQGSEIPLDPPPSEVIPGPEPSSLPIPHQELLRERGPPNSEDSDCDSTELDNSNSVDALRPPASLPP

With `CC(=O)N1CCC(c2cc(Nc3cc(C#N)ccn3)nc(N3CCC(F)(F)C3)c2)CC1`, the Ki was 25 nM.
